Assay results: patent EP0642351B1, “NEW PHARMACEUTICAL USES OF KRILL ENZYMES” (PHAIRSON MEDICAL, INC., priority 1992, dated 1993)
Read-outs that look alike come from different tables or passages of the source.

Tests used:
[1] = system: Yoshida Sarcoma; conditions: cited from earlier work
[2] = Example 39 - Cell viability (tox.) in HIV-contaminated cell lines, in vitro; assay type: cell-based
Description: (§1) This study was carried out at the Swedish National Bacterological Laboratory (SBL). Multi-Protein was compared to AZT and Foscarnet. All preparations were tested at dilutions from undiluted to 10^-5 (highest concentration for Multi-Protein was 5 mg/ml). The preparations were added to the cell linjes, HIV-I infected to 40-60%, under identical and standardized conditions.
(§2) Control: 50% infected cells. Cell toxicity and percentage of infected cells measured by immunofluorescence.
(§3) Control: 50% infected cells. Cell toxicity and percentage of infected cells measured by immanofluorescence.

[3] = system: cell linjes, HIV-I infected to 40-60%; test: as above; assay type: cell-based
Description: as §1, §2, §3

[4] = system: primary and secondary liver cancer; conditions: phase II study, Japan; T. Taguchi et al; cited from earlier work
[5] = system: mice with P388 murine leukemia; test: Toxicity on mice with s.c. implanted P388 murine leukemia, i.p. daily during 9 consecutive days; assay type: in vivo; conditions: 9 days
Description: It may be worth mentioning that the highest dose of PHIM (20 mg/kg) is far higher than any of the curing doses used in any of the clinical examples which have been reported earlier in this description.

Question: For `N.N.[Cl][Pt][Cl]` [Cisplatin], which “tumour cells not killed” value ([1]; cells removed from the tumour and cultured) is on record?
Answer: 53%

Question: Which viability ([2]; Trial 1, moi 0.4, Multi-Protein: deformed cells, read-out: Cell viability (tox.)) does the source give for `O=C(O)P(=O)(O)O` [Foscarnet] here?
Answer: 100%

Question: What about the “effect on the cells in the cultures” value ([3]; at low dilutions) of the same compound?
Answer: all cells in the cultures were attacked and killed

Question: For `CO[C@@]12[C@H](COC(N)=O)C3=C(C(=O)C(C)=C(N)C3=O)N1C[C@@H]1N[C@@H]12` [Mitomycin C], which “response rate (CR and PR)” value [4] is on record?
Answer: 20%

Question: And the side effect profile ([1]; 0.5 mg/kg as well as lower doses)?
Answer: loss of body weight, hair loss, decreased leucocytes and chronic diarrhoea

Question: What about the “effect on Yoshida Sarcoma resistant to Mitomycin C” value ([1]; 0.5 mg/kg or even higher doses) of the same compound?
Answer: no effects could be detected

Question: What about the “efficacy calculated as 30 days of survival of the rats” value ([1]; non-resistant Yoshida Sarcoma, doses up to 0.5 mg/kg) of the same compound?
Answer: ~100%

Question: With `COc1cccc2c1C(=O)c1c(O)c3c(c(O)c1C2=O)C[C@@](O)(C(=O)CO)C[C@@H]3O[C@H]1C[C@H](N)[C@H](O)[C@H](C)O1` [Adriamycin] as the compound, how does the “response rate (CR and PR)” value [4] read?
Answer: 9.5%

Question: With `Cc1cn([C@H]2C[C@H](N=[N+]=[N-])[C@@H](CO)O2)c(=O)[nH]c1=O` [AZT] as the compound, how does the viability [2] read?
Answer: 100%

Question: And the “effect on the cells in the cultures” value [3]?
Answer: all cells in the cultures were attacked and killed

Question: What does the source list for `COc1cccc2c1C(=O)c1c(O)c3c(c(O)c1C2=O)C[C@@](O)(C(=O)CO)C[C@@H]3O[C@H]1C[C@H](N)[C@H](O)[C@H](C)O1` [DOX, doxorubicin]?
Answer: Toxic death ([5]; Dose 1.25 mg/kg i.p. daily): 0/6; Toxic death ([5]; Dose 2.5 mg/kg i.p. daily): 6/6; Body weight change ([5]; Dose 5 mg/kg i.p. daily): -2.3 g; Toxic death ([5]; Dose 5 mg/kg i.p. daily): 6/6
